# System: skin microcirculation in domestic rabbits
# Assay: Effect of topical application of hesperetin on skin microcirculation by Laser Doppler Flowmetery
# Type: in vivo, Oryctolagus cuniculus
# Details: smearing the backs of rabbits with samples of different concentrations
# Excerpt: The experimental method for promoting microcirculation: Male Oryctolagus cuniculus weighted 3.0-3.5 kg were used. After shaving the hair on the back of the Oryctolagus cuniculus, 10 points for testing blood flow were marked with a marker pen on the hairless skin of the rabbit, i.e. 5 points for each of the right side and the left side, and aorta was avoided when drawing the points. Before smearing the sample, the basic values of blood flow at the 10 points of rabbits of each experimental group were determined by Laser Doppler Flowmetery. […] 2% solution was orally administrated by a similar method in a volume 100 times compared to the volume used in the group wherein the 2% solution was administered by smearing. After administration, the blood flow value was determined every hour at the same point by Laser Doppler Flowmetery for 24 h, and the variation index of blood flow was calculated to evaluate the effect of hesperetin on the back blood of rabbits, wherein a higher variation index of blood flow indicates a better effect of promoting microcirculation. The experimental results were statistically analyzed by SPSS11.5 software, t-test was applied to the measured data to evaluate the experimental results. When P<0.1, the data may be regarded as statistically significant. In the results of Table 1, all the time points at with P<0.1 in the 24-h test were listed.
smiles,measurement,value
COc1ccc([C@@H]2CC(=O)c3c(O)cc(O)cc3O2)cc1O [Hesperetin],blood flow in skin microvessels as compared to the blank side,significantly enhanced

# Source: patent US9351952B2, “Use of hesperetin” (NATURAL MEDICINE INSTITUTE OF ZHEJIANG YANGSHENGTANG CO., …, priority 2010, dated 2016)
